This is an account of results in ChEMBL document CHEMBL1139899, “Alpha-phenyl-N-tert-butyl nitrone (PBN) derivatives: synthesis and protective action against microvascular damages induced by ischemia/reperfusion” (Bioorg Med Chem, 2007).

SMILES strings stand for the structures.

For data set [1], the system named is Syrian golden hamster. The data set is described as follows: Protective effect against ischemia/reperfusion-induced microvascular damages in golden hamster assessed as number of leakage site per cm^2 at 10 mg/kg, po after 15 mins by cheek pouch assay. Type of data set: functional, Mesocricetus auratus.
For data set [2], the system named is Syrian golden hamster. As to the kind of experiment: Protective effect against ischemia/reperfusion-induced microvascular damages in golden hamster assessed as number of leakage site per cm^2 at 10 mg/kg, po after 10 mins by cheek pouch assay. Type of data set: functional, Mesocricetus auratus.
In data set [3] the test system is Syrian golden hamster. As to the kind of experiment: Protective effect against ischemia/reperfusion-induced microvascular damages in golden hamster assessed as number of leakage site per cm^2 at 3 mg/kg, po after 10 mins by cheek pouch assay. Type of data set: functional, Mesocricetus auratus.
In data set [4] the test system is Syrian golden hamster. The data set is described as follows: Protective effect against ischemia/reperfusion-induced microvascular damages in golden hamster assessed as number of leakage site per cm^2 at 3 mg/kg, po after 15 mins by cheek pouch assay. Type of data set: functional, Mesocricetus auratus.
A short description of data set [5]: Partition coefficient, log P of the compound. The class given is physicochemical. The following applies: octanol/water.

As to `Cc1c(C)c2c(c(C)c1O)CC[C@@](C)(CCC[C@H](C)CCC[C@H](C)CCCC(C)C)O2` [ALPHA-TOCOPHEROL], the figures for the Activity in data set [1] and in data set [2] were 45 cm2 and 50 cm2, respectively.

Usually logP stands for the decadic logarithm of the partition coefficient of the neutral form, usually between octanol and water. High values mean a more lipophilic compound, low ones a more hydrophilic compound. Consider `CC(C)(C)/[N+]([O-])=C\c1cccnc1`, for which the Activity in data set [3] was 68 leakage sites/cm2; in data set [4], 60 leakage sites/cm2. The logP in data set [5] stood at 0.21.

For `CC(C)(C)/[N+]([O-])=C\c1ccc([N+](=O)[O-])cc1`, the values for the Activity in data set [3] and in data set [4] were 90 leakage sites/cm2 and 78 leakage sites/cm2, respectively. In data set [5], this compound yielded a logP of 1.39.

`CC(C)(C)/[N+]([O-])=C\c1ccco1`: the Activity in data set [3] worked out at 49 leakage sites/cm2; in data set [4], 33 leakage sites/cm2. Besides, the logP in data set [5] stood at 1.1.

For the compound `COc1cc(/C=[N+](/[O-])C(C)(C)C)ccc1O`, the Activity in data set [3] was determined as 108 leakage sites/cm2; in data set [4], 85 leakage sites/cm2. This compound came in with a lipophilicity (logP) in data set [5] of 1.58.

The compound `CC(C)(C)/[N+]([O-])=C/c1ccccc1` returned a logP in data set [5] of 1.5.

With `CC(C)(C)/[N+]([O-])=C/c1cc2c(cc1Br)OCO2`, the values for the Activity in data set [3] and in data set [4] were 118 leakage sites/cm2 and 109 leakage sites/cm2, respectively. Besides, the logP in data set [5] came out at 1.69.

With `CN(C)c1ccc(/C=[N+](/[O-])C(C)(C)C)cc1`, the Activity was determined as 75 leakage sites/cm2 in data set [3] and 55 leakage sites/cm2 in data set [4]. For the same compound, in data set [5], the log partition coefficient (logP) was 1.73.

`COc1cc(/C=[N+](/[O-])C(C)(C)C)ccc1OCc1ccccc1`: the Activity in data set [3] turned out to be 40 leakage sites/cm2; in data set [4], 35 leakage sites/cm2. The logP in data set [5] is 2.68.

Consider `CC(C)(C)/[N+]([O-])=C\c1ccc2c(c1)OCO2`, for which the Activity in data set [3] was found to be 44 leakage sites/cm2; in data set [4] it was 38 leakage sites/cm2. The compound also had a logP in data set [5] of 0.57.
